In BindingDB's records for doi:10.1016/j.chembiol.2009.07.006 (Burnham Institute For Medical Research, 2009):
Values joined by “and” are separate entries in the source; they are usually repeats but may differ in a detail not shown here. Equal entries are not always repeated.

Biological target: T1, Nicotinate-nucleotide adenylyltransferase (Escherichia coli (strain K12), UniProt P0A752)
T1 sequence (P0A752 whole entry): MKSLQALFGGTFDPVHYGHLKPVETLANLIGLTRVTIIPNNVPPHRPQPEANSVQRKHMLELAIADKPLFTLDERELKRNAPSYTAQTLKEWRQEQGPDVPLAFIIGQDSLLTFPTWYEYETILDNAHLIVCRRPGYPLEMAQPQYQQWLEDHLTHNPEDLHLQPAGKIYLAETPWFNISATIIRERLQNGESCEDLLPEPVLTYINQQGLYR
Experiment: Enzymatic Inhibition Assay
Source text: The enzymatic assay was masured at fixed NaMN and ATP concentration (equal to two-fold km values)with various concentration of inhibitory compounds.

`O=C(CCC(=O)Nc1cccc(Cl)c1)NN=Cc1c2ccccc2cc2ccccc12` [NadD inhibitor 1_02] was tested, and the Ki was 8 µM and 5 µM.
